Experimental findings from patent US20020197281A1, “Composition cantaining a peptide and a pigment and the use thereof in darkening the skin” (priority 2001, published 2002) are described below.

The test system of experiment [1] is Dark skinned Yucatan microswine. Kind of experiment: Induced pigmentation in vivo, F&M-stained skin sections of topically treated swine. Also noted: key: −1: Slight lightening; 0: No change; 1: Minimal increase in pigment deposition; 2: Increased pigment deposition; 3: Strong increase in pigment deposition, some increase in caps; 4: Strong increase in pigment deposition, strong increase in caps. Particulars: topical twice a day, five days/week, eight or nine weeks; peptides 250 or 500 μM, pigments 1% or 5% (W/V), positive controls 1% (W/V); average of all sites of responsive swine. As for the experimental part:
Compositions of the present invention were tested for their ability to induce in vivo pigmentation in skin cells in the following experiment. Dark skinned Yucatan microswine (Charles River, Portland, Me.) were housed in appropriately sized cages in an environmentally controlled room with a 12-hour light-12-hour dark photoperiod and supplied with food and water ad libitum. Animal care was based on the “Guide for the Care and Use of Laboratory Animals”, NIH Publication No. 85-23. Twenty μl of test peptides were applied topically, twice a day, five days/week, for eight or nine weeks, on the dorsum of the swine. Treatments of individual swine were always arranged in a head to tail order on one side, and in a tail to head order on the other side of the animal. Biopsies were taken using standard techniques.
Sections from the skin biopsies were stained with Hematoxylin and Eosin (H&E), or with Fontana-Mason (F&M), using standard procedures (Sheenan D C, Hrapckak B B, eds., Theory and Practice of Histo-technology. p. 223, 277, The C.V. Mosby Co., St. Louis (1980)). F&M staining identifies silver nitrate reducing molecules. In skin, this non-specific stain identifies primarily melanin. At least three sections per biopsy were processed. Each experiment was repeated at least three times.
Swine were treated with either: the known skin darkening agent forskolin (Sigma) or with a Coleus forskoli extract (ATZ Naturals, Englewood Cliffs, N.J.) which contains forskolin, as a positive control at 1% (W/V); pigments at 1% or 5% (W/V); peptides of this invention at 250 μM or 500 μM; and combinations of such peptides at 250 μM or 500 μM with pigments at 1% (W/V). Pigments tested include pigmented natural extracts (i.e., Bearberry extract and Hedychium spicatum extract) and synthetic compounds (i.e., the soluble melanin compound Melasyn-100™). These test compounds were dissolved in ethanol: propylene glycol 70:30 (v/v). […]
F&M-stained histological skin sections were evaluated for the change in pigment deposition within the treated site. […]

The subject of experiment [2] is keratinocyte-melanocyte co-cultures (Human HaCaT keratinocytes, Human primary melanocytes). Kind of experiment: Induced pigmentation in keratinocyte-melanocyte co-cultures (DOPA staining, computerized image analysis). The experiment is classed as cell-based. The note with it: three daily treatments; for Mean area: DOPA-stained relative pigmented area; for % increase: normalized to control. As for the experimental part: The peptides Peptide 1 and Peptide 3 and various pigments were tested, alone or in combination, with keratinocyte-melanocyte cultures for their effect on cell pigmentation, using DOPA staining and computerized image analysis. The pigments that were tested were the pigmented natural extracts Bearberry extract from Alban Muller International (Vincennes, France) and Hedychium spicatum extract sold as Kapur Kachali from Amsar Private Limited (Indore, India), copper chloride from Sigma (St. Louis, Mo.) and the water-soluble melanin derivatives Melasyn-100™ from San-mar laboratories, Inc. (Elmsford, N.Y.) and MelanZe™ from Zylepsis (Ashford, Kent, United Kingdom). The pigments were tested at concentrations ranging from 0.0001%(W/V) to 1%(W/V) and the peptides were tested at 50 μM.
The assay was conducted in the following manner. Human HaCaT keratinocytes (Boukamp P., et al., J Cell Biol 106, 3, 761-771 (1988)) were maintained in Dulbecco's Modified Eagle's Medium (DMEM) containing 10% fetal bovine serum (FBS), 4.5 mg/ml glucose, 2 mM L-glutamine, 50 U/ml penicillin and 50 μg/ml streptomycin (Life Technologies, Gaithersburg, Md.). Cells were maintained at <80% confluency in 5% CO2 (v/v) and were used in experimental procedures up to culture passage 15. Human primary melanocytes (Clonetics, San Diego, Calif. or Cascade Biologics, Portland, Oreg.) were maintained according to manufacturer's instructions. To establish keratinocyte-melanocyte co-cultures, 6×10^4 melanocytes were plated in each well of a 24 well plate and maintained according to manufacturer's instructions.
Melanocytes were rinsed three times with melanocyte growth media without PMA and keratinocytes (6×10^4) were plated to establish the co-cultures in this media. Co-cultures were treated for three days with test peptides and pigments, and assayed for cell viability and pigment level on the forth day. Cell viability was assayed using alamarBlue™ (Acumed International, West Lake, Ohio) following manufacturer's instructions. No change in viability was observed following three daily treatments with all tested material. All in vitro experiments were performed in triplicates, and were repeated at least three times.
Following three daily treatments, the co-cultures were briefly fixed (10% buffered formalin from Fisher Scientific, 15 minutes), washed three times with Phosphate-buffered saline (PBS, from Life Technologies) and stained with L-3,4-Dihydroxyphenylalanine (DOPA, from Sigma, St. Louis, Mo.) 0.1% in PBS, for 5 hours at 37° C., followed by two PBS washes and formalin (10%, overnight) fixation. DOPA is a substrate for tyrosinase, therefore an increase in staining represents increased tyrosinase activity and pigment production. DOPA-stained monolayers were used for image analysis. All images were obtained and analyzed with Image Pro Plus 3.0 software (Media Cybernetics, Silver Spring, Md.). Parameters measured were surface area of stained material within melanocyte and keratinocytes and the total surface area of the cells in the culture, and the relative pigmented area was calculated. A value of 100% was assigned to untreated controls, and values of treatment groups were normalized to their relevant controls. In all experiments there was no difference between PBS-treated cells and untreated controls. Data are presented with standard deviation (SigmaPlot® 5.0, SPSS Science, Chicago, Ill.).
Forskolin (Sigma, St. Louis, Mo.), a known inducer of pigmentation, served as a positive control and a reference point. Forskolin was administered at 1% (W/V).

Take `C=C[C@@]1(C)CC(=O)[C@]2(O)[C@@]3(C)[C@@H](O)CCC(C)(C)[C@@H]3[C@H](O)[C@H](OC(C)=O)[C@@]2(C)O1` [Forskolin, reference compound]: the “Score (change in pigment deposition)” value in experiment [1] was 1. Further, in experiment [2] (positive control 1% (W/V)), the Mean area was found to be 0.067 and the “% increase” value was determined as 231.0%.
As for “H2-Ser-Leu-Ile-Gly-Arg-Leu-NH2 (H-SLIGRL-NH2) [Peptide 3]”, the “Score (change in pigment deposition)” value in experiment [1] was 2-3.
Consider `[Cl][Cu][Cl]` [CuCl2, copper chloride], for which, in experiment [2] (pigment alone 0.001% (W/V)), the Mean area came out at 0.064 and the “% increase” value turned out to be 220%.
On to “H2-Leu-Ile-Gly-Arg-NH2 (H-LIGR-NH2) [Peptide 1]”, for which, in experiment [1], the “Score (change in pigment deposition)” value is 1-2. Further, in experiment [2] (peptide alone 50 μM), the Mean area worked out at 0.080 and the “% increase” value was found to be 279%.
